Source: patent US20050197385A1, “Use of rotigotine for treatment or prevention of dopaminergic neuron loss” (Schwarz Pharma AG, priority 2004, published 2005)

What was measured:
[1] = tested on: dopamine transporter (DAT) in striatum; test: Subacute MPTP model, [125I]PE2I dopamine transporter binding in striatum sections; assay type: in vivo; conditions: mouse
Procedure: Groups 1-7 were treated in the following manner: Group 1: Untreated control; Group 2: Control group treated with the excipient solution for Rotigotine and MPTP; Group 3: MPTP treatment; Group 4: MPTP treatment plus Rotigotine 0.3 mg/kg; Group 5: MPTP treatment plus Rotigotine 1.0 mg/kg; Group 6: MPTP treatment plus Rotigotine 3.0 mg/kg; Group 7: Treatment only with Rotigotine (3.0 mg/kg)
For intoxication, mice are administered 80 mg/kg of the neurotoxin 1-methyl-4-phenyl-1,2,3,6-tetrahydro-pyridine (MPTP) (in portions of 20 mg/kg at two-hour intervals, Group 3-6 in FIGS. 1 and 2), leading to a degeneration of the neurons of the substantia nigra of about 50-60% (maximum degeneration in Group 3 in FIGS. 1 and 2). Rotigotine is administered daily in doses of 0.3, 1, or 3 mg/kg each for 7 days in the so-called ‘Slow-Release-Formulation’ (see Working Example 2) (Group 4-6 in FIGS. 1 and 2). A group of MPTP treated animals (Group 3) is given Rotigotine excipient solution (see Working Example 2 without Rotigotine HCl) and serves as reference. […] PE2I ([^125I]-(E)-N(3-iodoprop-2-enyl)-2β-carboxymethyl-3β-(4′-methylphenyl)-nortropane) in phosphate buffer, pH 7.4, in order to mark the quantity of the still present dopamin transporter in striatum and thereby to indicate the quantity of functioning nerve ends.

[2] = tested on: MPTP-treated (macaque) monkeys; test: Progressive MPTP primate model (pilot study); assay type: in vivo
Procedure: In the model used, which reflects the progressive course of the Parkinson's disease on primates, subliminal toxic doses of MPTP were injected in (macaque) monkeys for several days. The Parkinson symptoms developed in the model in a period of about 2 weeks. As soon as a certain degree of damage was reached, Rotigotine was injected daily in a formulation that built up a continuous plasma level for 24 h. The MPTP injections were stopped as soon as the motor activity was reduced by a certain degree (approx. 5 days later). The behavior of the animals was assessed on a daily basis.
At the end of the Rotigotine injection or washout phase, a group each of animals was killed and the condition of the basal ganglion was examined histologically and biochemically.

[3] = tested on: neurons of the substantia nigra; test: Acute MPTP model (including apoptosis), FluoroJade stain of degenerating neurons; assay type: in vivo; conditions: mouse; for Number of degenerating neurons: FluoroJade stain
Procedure: About 16 hours before, Rotigotine is administered in doses of 0.3, 1 or 3 mg/kg each as the so-called ‘Slow-Release-Formulation’. […] After 24 hours the animals are killed and the brains fixed. The brain sections are stained with FluoroJade for identification of degenerated cells. The immunohistochemical marking of tyrosine-hydroxylase served the purpose of identification of dopaminergic neurons.

Parkinson patients = conditions: cited from earlier work
Parkinson models = conditions: in vivo; cited from earlier work

Structure (SMILES) | Survival of the neurons and their nerve ends (dopamine transporter quantity in striatum) ([1]; MPTP 80 mg/kg, Rotigotine 0.3, 1 or 3 mg/kg daily for 7 days, Slow-Release-Formulation) | Dopaminergic innervation of the striatum (dopamine transporter density) ([1]; subacute phase after MPTP) | Content of pre-pro-enkephalin ([2]; basal ganglion, after the treatment and the washout phase) | Motor activity of the animals ([2]; daily Rotigotine injection, during the treatment and in the following washout phase) | Density of the nerve endings in the striatum ([2]; end of Rotigotine injection or washout phase, compared to untreated animals) | Number of degenerating neurons ([3]; MPTP excipient + Rotigotine 3.0 mg/kg (Rotigotine alone)) | Number of degenerating neurons ([3]; MPTP intoxication + Rotigotine 0.3 mg/kg) | Number of degenerating neurons ([3]; MPTP intoxication + Rotigotine 1.0 mg/kg) | Number of degenerating neurons ([3]; MPTP intoxication + Rotigotine 3.0 mg/kg) | Staining of tyrosine hydroxylase, treated versus untreated animals ([3]; acute MPTP model, 24 hours after MPTP, immunohistochemistry) | Decrease in the number of degenerated neurons after application of Rotigotine ([3]; acute MPTP model, FluoroJade, versus MPTP alone) | Number of degenerating neurons in the mesencephalon ([3]; acute phase after MPTP) | Dyskinesias (Parkinson-associated motor function disorders) (Parkinson patients; patients with prominent dyskinesias, Metman et al 2001) | UPDRS (Unified Parkinson's Disease Rating Scale) score (Parkinson patients; transdermal administration to Parkinson patients, WO 02/089777) | Activity in Parkinson models (Parkinson models)
CCCN(CCc1cccs1)C1CCc2c(O)cccc2C1 (single isomer, unassigned; (-)) [Rotigotine, (−)-5,6,7,8-Tetrahydro-6-[propyl[2-(2-thienyl)ethyl]amino]-1-naphthol] | improves the survival of the neurons and their nerve ends in dependence of the dosage | almost completely preserved or restored | tendency toward normalization | clearly improved | significantly increased | 3.8 | 66.7 | 76.8 | 34.9 | does not show any difference | about 50% | reduced | improved | improvement | 
CCCN(CCc1cccs1)[C@@H]1CCc2c(O)cccc2C1 [(R)-enantiomer] |  |  |  |  |  |  |  |  |  |  |  |  |  |  | inactive
